From patent US6191271A, “Synthetic divalent sLex containing polylactosamines and methods for use” (Glycim Oy, priority 1998, dated 2001)
“Also recorded” adds a separate entry of the source.

Assays:
human Fuc-TIV = assay: Fucosyltransferase reaction with lysates of CHO-cells transfected with human Fuc-TIV; assay type: biochemical; details: for share of Fuc-TIV fucose transfer at the terminal (sialylated or non-reducing end) LN unit: residue 3 / terminal LN unit
Procedure: (§1) Transfected Cells and Cell Lysates--The transfection of CHO-cells stably expressing human Fuc-TIV or Fuc-TVII has been described previously (Lowe, J. B., et al., J. Biol. Chem. 266:17467-17477 (1991); Natsuka, S., et al., J. Biol. Chem. 269:16789-16794 (1994)). For the enzyme assays, the cells were lysed in 1% Triton X-100 on ice in the presence of a mixture of protease inhibitors (16 μg/ml benzamidine HCl, 10 μg/ml phenanthroline, 10 μg/ml aprotinin, 10 μg/ml leupeptin, 10 μg/ml pepstatin A, 1 mM PMSF, Pharmingen, San Diego, Calif.).
(§2) Glycan 1 was from Sigma (St. Louis, Mo.), and glycan 2 from Oxford Glycosystems (Abingdon, UK). The others were synthesized enzymatically. Briefly, glycan 11 was constructed from GlcNAcβ1-3Galβ1-OMe (Sigma) by β1,4-galactosylation (Brew, K., et al., Proc. Natl. Acad Sci. USA 59:491-497 (1968)) followed by β1,3-N-acetylglycosaminylation (Seppo, A., et al., Biochem. Cell Biol. 68:44-53 (1990)) and a second round of β1-4-galactosylation. […] Glycan 3 was obtained from glycan 11 by α2,3-sialylation as in (Maaheimo, H., et al., Eur. J. Biochem. 234:616-625 (1995)). Glycan 12 was constructed from the GNβ1-3 'LNβ1-3 'LN (Leppanen, A., et al., Biochemistry 30:9287-9296(1991)) by β1,4-galactosylation, MALDI-TOF MS: (M+Na)^+ m/z 1137.1 (calc. 1137.0). Glycan 4 was obtained by glycan 12 by α2,3-sialylation. Glycan 15 was synthesized as in (Renkonen, O., et al., Biochem. Cell. Biol. 68:1032-1036 (1990)), MALDI-TOF MS: (M+Na)^+ m/z 1136.9 (calc. 1137.0). Glycan 16 was obtained by a 2,3-salylation of 15. In the synthesis of glycan 8, GNβ1-3'LNβ1-3'LN was α1,3 [^14 C]fucosylated at both LN units with α1,3/4-FucTs ofhuman milk and then β1,4-galactosylated. MALDI-TOF MS of the resulting octasaccharide LN β1-3'Lexβ1-3'Lex gave (M+Na)^+ m/z 1429.3 (calc. 1429.3). The octasaccharide was finally α2,3-sialylated to give glycan 8. Degradation of glycan 8 by sialidase and a mixture of β-galactosidaseand β-N-acetylhexosaminidase gave the neutral hexasaccharide [^14 C]Fucα1-3LNβ1-3'[^14 C]Fucα1-3LN, which chromatographed like an authentic marker on paper. In the synthesis of glycan 5, glycan 10 was converted to the pentasaccharide LNβ1-3 '(GNβ1-6 ')LN as in (Niemela, R., et al., Carbohydr. Res. 279:331-338 (1995); Maaheimo, H., et al., Carbohydr. Res. 297:53-59 (1997)), MALDI-TOF MS: (M+Na)^+ m/z 974.8 (calc. 974.9). The product was α2,3-sialylated, α1,3-fucosylated selectively at the distal, sialylated LN-unit (Niemela, R., et al., Carbohydr. Res. 279:331-338 (1995), and treated with β-N-acetylhexosaminidase for removal of the protecting β1-6GN-unit to give glycan 5. Glycan 6, in turn, was obtained by α1,3-fucosylating glycan 9 at the LN unit by human milk α1,3/4-Fuc-Ts. The product was then β1,4-galactosylated and finally α2,3-sialylated. Glycan 7 was synthesized by α2,3-sialylation of the heptasaccharide LNβ1-3'Lexβ1-3'LN,prepared by β1,4-galactosylation of GNβ1-3 'Lexβ1-3 'LN, which had been isolated from a mixture of monofucosylated isomers by wheat germ agglutinin (WGA)-agarose chromatography. LNβ1-3'Lexβ1-3'N was characterized by ^1 H-NMR-spectroscopy, MALDI-TOF MS: (M+Na)^+m/z 1282.5 (calc. 1282.5). Glycan 9 was obtained by β1,3-N-acetylglucosaminylation of LN (Seppo, A., et al., Biochem. Cell Biol. 68:44-53 (1990)), MALDI-TOF MS: (M+Na)^+ m/z 609.7 (calc. 609.5). Glycan 10 was synthesized by β1,4-galactosylation of glycan 9. Glycans 13 and 14 were obtained by separating monofucosylated derivatives of glycan 10 by WGA chromatography. Glycan 13, MALDI-TOF MS: (M+Na)^+ m/z 917.9 (calc. 917.8). Glycan 14, MALDI-TOF MS: (M+Na)^+ m/z 917.8 (calc. 917.8). […]

human Fuc-TVII = assay: Fucosyltransferase reaction with lysates of CHO-cells transfected with human Fuc-TVII; assay type: biochemical
Procedure: as §1
as §2, with “chromatography.” for “chromatography. Glycan 13, MALDI-TOF MS: (M+Na)^+ m/z 917.9 (calc. 917.8). Glycan 14, MALDI-TOF MS: (M+Na)^+ m/z 917.8 (calc. 917.8).”

[1] = test system: rat lymphocyte L-selectin; assay: Stamper-Woodruff assay: in vitro lymphocyte adhesion to high endothelial venules (HEV) of peripheral rat lymph nodes; assay type: cell-based
Procedure: The affinities of the glycans of the invention towards rat lymphocyte L-selectin were analyzed with the in vitro Stamper-Woodruff binding assay. […] The important control saccharides, carrying at the distal termini the fucose-free sLN-residues instead of the sLex-epitopes are consistently without any inhibitory effect.
Lymphocytes were isolated from mesenterical lymph nodes of WF or DA rats and used immediately in the assay after isolation and pretreatment. […] Lymphocytes were over 99% of purity as quantitated by cytocentrifuge preparations. […]
In the Stamper-Woodruff assay 3×10^6 lymphocytes in 100 μl of RPMI containing 0.5% FCS were put on a frozen section inside a 23 mm wax circle, and rotated for 30 min at +4° C. […] The number of bound lymphocytes was calculated per high endothelial venules and 50 to 100 vessels were identified from each sample. […]
Lymphocyte adhesion was studied in a well documented L-selectin-dependent Stamper-Woodruff assay where frozen sections of lymph nodes were prepared, lymphocytes were placed on top of them, adhesion was permitted on a rotator and the number of adherent cells were quantitated visually. […]

SAα2-3'LNβ1-3Lex β1-3'[^14 C]Lex [glycan 8 (FIG. 8)]
fucosylation by Fuc-TIV, acceptor- and site-specificity (in words) (human Fuc-TIV): ineffective
rate of Fuc-TIV reaction as % of the rate catalyzed by Fuc-TVII (human Fuc-TIV; transfer to distal sialylated LN unit giving SAα2-3'Lexβ1-3'Lexβ1-3'Lex): 6-7%
fucosylation by Fuc-TVII, acceptor- and site-specificity (in words) (human Fuc-TVII): nearly as rapidly as glycan 2

LNβ1-3'Lex [glycan 14 (FIG. 8)]
fucosylation by Fuc-TIV, acceptor- and site-specificity (in words) (human Fuc-TIV): transferred rapidly

SAα2-3'LNβ1-3'Lexβ1-3'LN [glycan 7 (FIG. 8)]
fucosylation by Fuc-TIV, acceptor- and site-specificity (in words) (human Fuc-TIV): effectively utilizes
share of Fuc-TIV fucose transfer at the innermost / reducing end LN unit (residue 1) (human Fuc-TIV): 86%
share of Fuc-TIV fucose transfer at the terminal (sialylated or non-reducing end) LN unit (human Fuc-TIV): Less than 5%

CC(=O)N[C@H]1C(O)O[C@H](CO)[C@@H](O[C@@H]2O[C@H](CO)[C@H](O)[C@H](O)[C@H]2O)[C@@H]1O (stereo partly shown) [glycan 1 (FIG. 8), N-acetyllactosamine, reference compound]
fucosylation by Fuc-TIV, acceptor- and site-specificity (in words) (human Fuc-TIV): rapidly fucosylates
Transfer rate (reference acceptor) (human Fuc-TIV; reference acceptor for Fuc-TIV): ~3.9 pmol/μg protein/h

CC(=O)N[C@H]1[C@H]([C@H](O)[C@H](O)CO)O[C@@](O[C@H]2[C@@H](O)[C@@H](CO)O[C@@H](O[C@H]3[C@H](O)[C@@H](NC(C)=O)C(O)O[C@@H]3CO)[C@@H]2O)(C(=O)O)C[C@@H]1O (stereo partly shown) [glycan 2 (FIG. 8), SAα2-3 'LN, reference compound]
fucosylation by Fuc-TIV, acceptor- and site-specificity (in words) (human Fuc-TIV): ineffective
Transfer rate (reference acceptor) (human Fuc-TVII; reference acceptor for Fuc-TVII): ~3.2 pmol/μg protein/h

Lexβ1-3 'LN [glycan 13 (FIG. 8)]
fucosylation by Fuc-TIV, acceptor- and site-specificity (in words) (human Fuc-TIV): transferred rapidly

LN1-3'LN1-3'LN [glycan 12 (FIG. 8)]
share of Fuc-TIV fucose transfer at the innermost / reducing end LN unit (residue 1) (human Fuc-TIV): 28%
share of Fuc-TIV fucose transfer at the middle LN unit (residue 2) (human Fuc-TIV): 47%
share of Fuc-TIV fucose transfer at the terminal (sialylated or non-reducing end) LN unit (human Fuc-TIV): 25%

SAα2,3'LNβ1,3'LNβ1,3' (SAα2,3'LNβ1,3'LNβ1,6')LN [glycan 5]
effect on lymphocyte adhesion to HEV (in words) ([1]; 50 nM): no effect in lymphocyte binding to HEV
effect on lymphocyte adhesion/binding to HEV (in words) ([1]; peripheral rat lymph node HEV): did not show inhibitory effects

SAα2-3'LNβ1-3'LNβ1-3'LN [glycan 4 (FIG. 8)]
fucosylation by Fuc-TIV, acceptor- and site-specificity (in words) (human Fuc-TIV): efficiently fucosylates; also recorded: transfers rapidly to sialoglycan 4, at both "inner" LN units; also recorded: efficient conversion of glycan 4 to glycan 8 in two steps catalyzed by Fuc-TIV, but not by Fuc-TVII
rate of Fuc-TIV transfer to the sialylated LN unit (residue 3), times slower than to both inner LN units (human Fuc-TIV; residue 3 vs residues 1 and 2): 30-40 times slower
fucosylation by Fuc-TVII, acceptor- and site-specificity (in words) (human Fuc-TVII): transfers preferentially to the sialylated, distal LN residue
rate of Fuc-TVII transfer to the reducing end LN unit (residue 1), times slower than to the sialylated LN residue (human Fuc-TVII; residue 1 vs residue 3): 84 times slower
rate of Fuc-TVII transfer to the middle LN unit (residue 2), times slower than to the sialylated LN residue (human Fuc-TVII; residue 2 vs residue 3): 17 times slower

LNβ1-3 'LNβ1-3'Galβ1-OMe [glycan 11 (FIG. 8)]
fucosylation by Fuc-TIV, acceptor- and site-specificity (in words) (human Fuc-TIV): transferred efficiently
share of Fuc-TIV fucose transfer at the middle LN unit (residue 2) (human Fuc-TIV): 67%
share of Fuc-TIV fucose transfer at the terminal (sialylated or non-reducing end) LN unit (human Fuc-TIV): 33%
